Earlier results on one molecule are cited in article PMC11088877, “AMP-activated protein kinase can be allosterically activated by ADP but AMP remains the key activating ligand” (Biochemical Journal, 2024).

A word on the Kd: it is a measure of binding affinity in units of concentration.

The data set concerns the target bacterially expressed AMPK heterotrimers (γ subunit CBS sites). As to conditions: in the presence of Mg2+ and staurosporine; read-out: estimated Kd at the CBS3 site; cited from earlier work.

As to `Nc1ncnc2c1ncn2[C@@H]1O[C@H](COP(=O)(O)OP(=O)(O)OP(=O)(O)O)[C@@H](O)[C@H]1O` [ATP], the Kd is 100 to 500 µM.
